These are literature values, as cited in US20140100272A1, “METHODS OF ADMINISTERING COMPOSITIONS COMPRISING DOCOSAPENTAENOIC ACID” (Matinas BioPharma, Inc., priority 2012, published 2014).

For this data set the following is noted: in vivo.

Regarding `CC[C@H](C)C(=O)O[C@H]1C[C@@H](C)C=C2C=C[C@H](C)[C@H](CC[C@@H]3C[C@@H](O)CC(=O)O3)[C@H]21` [lovastatin], the absorbed at rates result is recorded as “about 30%”.
